From patent US20220340597A1, “HEXAHYDRO-1H-PYRAZINO[1,2-A]PYRAZINE COMPOUNDS FOR THE TREATMENT OF AUTOIMMUNE DISEASE” (Hoffmann-La Roche Inc., priority 2019, published 2022)

Experiments:
human TLR8 = target: T1, human TLR8 (Homo sapiens, UniProt Q9NR97); test: HEK293-Blue-hTLR-8 cells assay
T1 sequence (Q9NR97 27-1041): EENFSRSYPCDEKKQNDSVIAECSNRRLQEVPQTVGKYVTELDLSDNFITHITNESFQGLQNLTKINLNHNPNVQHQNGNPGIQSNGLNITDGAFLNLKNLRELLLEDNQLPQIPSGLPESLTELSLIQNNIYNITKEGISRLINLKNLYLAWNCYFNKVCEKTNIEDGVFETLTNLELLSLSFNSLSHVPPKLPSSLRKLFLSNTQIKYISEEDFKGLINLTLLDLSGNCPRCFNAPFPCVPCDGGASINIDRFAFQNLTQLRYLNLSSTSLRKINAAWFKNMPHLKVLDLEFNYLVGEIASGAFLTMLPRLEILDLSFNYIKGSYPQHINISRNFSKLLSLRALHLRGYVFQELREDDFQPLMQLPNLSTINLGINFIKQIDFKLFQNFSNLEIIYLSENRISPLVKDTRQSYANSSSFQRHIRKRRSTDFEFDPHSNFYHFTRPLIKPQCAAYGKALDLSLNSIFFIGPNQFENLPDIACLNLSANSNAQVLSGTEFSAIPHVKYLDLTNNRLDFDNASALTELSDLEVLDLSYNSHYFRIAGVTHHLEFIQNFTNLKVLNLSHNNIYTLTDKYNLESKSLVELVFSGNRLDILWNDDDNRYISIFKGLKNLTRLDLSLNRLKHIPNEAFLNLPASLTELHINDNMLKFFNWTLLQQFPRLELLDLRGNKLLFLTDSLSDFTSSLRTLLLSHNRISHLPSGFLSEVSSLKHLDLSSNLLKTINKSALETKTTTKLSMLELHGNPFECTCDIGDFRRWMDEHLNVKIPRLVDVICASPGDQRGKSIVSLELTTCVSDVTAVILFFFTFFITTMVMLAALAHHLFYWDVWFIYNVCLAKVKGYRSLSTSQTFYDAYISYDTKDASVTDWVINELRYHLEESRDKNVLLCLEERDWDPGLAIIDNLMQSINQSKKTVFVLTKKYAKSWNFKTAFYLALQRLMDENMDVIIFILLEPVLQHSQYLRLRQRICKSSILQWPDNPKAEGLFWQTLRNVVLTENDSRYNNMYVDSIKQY

human TLR7 = target: T2, human TLR7 (Homo sapiens, UniProt Q9NYK1); test: HEK293-Blue-hTLR-7 cells assay; assay type: cell-based; settings: HEK293-Blue-hTLR7 cells, R848 stimulation, 20 hrs, SEAP reporter; read-out: HEK/hTLR7 IC50
T2 construct: host or cells: HEK293 (HEK-Blue hTLR7)
T2 sequence (Q9NYK1 27-1049): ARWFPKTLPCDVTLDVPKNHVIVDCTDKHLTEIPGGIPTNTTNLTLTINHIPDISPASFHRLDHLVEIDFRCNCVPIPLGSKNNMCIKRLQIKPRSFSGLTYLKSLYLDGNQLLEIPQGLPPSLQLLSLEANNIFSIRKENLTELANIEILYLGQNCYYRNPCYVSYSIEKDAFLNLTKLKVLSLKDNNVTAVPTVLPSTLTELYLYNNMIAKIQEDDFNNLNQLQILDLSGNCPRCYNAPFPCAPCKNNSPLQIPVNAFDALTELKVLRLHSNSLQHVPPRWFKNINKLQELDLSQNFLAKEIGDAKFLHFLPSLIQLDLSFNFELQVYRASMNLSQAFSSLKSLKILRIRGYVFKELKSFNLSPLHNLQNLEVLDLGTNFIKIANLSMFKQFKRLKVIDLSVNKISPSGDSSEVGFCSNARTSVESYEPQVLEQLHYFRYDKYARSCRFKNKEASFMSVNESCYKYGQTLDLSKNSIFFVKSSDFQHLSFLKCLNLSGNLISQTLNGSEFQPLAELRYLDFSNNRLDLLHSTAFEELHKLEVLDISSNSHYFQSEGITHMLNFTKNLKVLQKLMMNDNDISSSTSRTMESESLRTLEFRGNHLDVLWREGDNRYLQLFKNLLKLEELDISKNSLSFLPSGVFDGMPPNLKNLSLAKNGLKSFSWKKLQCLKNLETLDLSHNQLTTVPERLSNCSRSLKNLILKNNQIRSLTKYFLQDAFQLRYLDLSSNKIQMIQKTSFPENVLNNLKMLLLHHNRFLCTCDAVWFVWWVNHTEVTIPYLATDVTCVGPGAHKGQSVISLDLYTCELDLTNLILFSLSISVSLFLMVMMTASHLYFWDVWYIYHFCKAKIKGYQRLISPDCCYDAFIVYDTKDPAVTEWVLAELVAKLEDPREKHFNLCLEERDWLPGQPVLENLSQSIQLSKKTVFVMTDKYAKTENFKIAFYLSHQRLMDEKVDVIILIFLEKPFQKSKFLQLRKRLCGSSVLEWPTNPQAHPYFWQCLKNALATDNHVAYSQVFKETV

Structure (SMILES) | IC50 (human TLR8) | IC50 (human TLR7)
[2H]c1ccc2c(N3C[C@@H]4CN(Cc5ccc6c(c5)CNCC6)CCN4[C@H](C)C3)ccc(C#N)c2n1 [Example 61, 5-[(4R,9aS)-4-methyl-8-(1,2,3,4-tetrahydroisoquinolin-7-ylmethyl)-3,4,6,7,9,9a-hexahydro-1H-pyrazino[1,2-a]pyrazin-2-yl]-2-deuterio-quinoline-8-carbonitrile] | 8 nM | 16 nM
[2H]c1ccc2c(N3C[C@@H]4CN(CCc5ccc(N6C[C@@H](N)[C@H](OC)C6)nc5)CCN4[C@H](C)C3)ccc(C#N)c2n1 [Example 62, 5-[(4R,9aS)-8-[2-[6-[(3R,4R)-3-amino-4-methoxy-pyrrolidin-1-yl]-3-pyridyl]ethyl]-4-methyl-3,4,6,7,9,9a-hexahydro-1H-pyrazino[1,2-a]pyrazin-2-yl]-2-deuterio-quinoline-8-carbonitrile] | 17 nM | 23 nM
[2H]c1ccc2c(N3C[C@@H]4CN(CCc5ccc(N6CC7(CN(C)C7)C6)nc5)CCN4[C@H](C)C3)ccc(C#N)c2n1 [Example 64, 5-[(4R,9aS)-4-methyl-8-[2-[6-(6-methyl-2,6-diazaspiro[3.3]heptan-2-yl)-3-pyridyl]ethyl]-3,4,6,7,9,9a-hexahydro-1H-pyrazino[1,2-a]pyrazin-2-yl]-2-deuterio-quinoline-8-carbonitrile] | 32 nM | 23 nM
CO[C@@H]1CN(c2ccc(CCN3CCN4[C@@H](C3)CN(c3ccc(C#N)n5ncc(F)c35)C[C@H]4C)cn2)C[C@H]1N [Example 67, 4-[(4R,9aS)-8-[2-[6-[(3R,4R)-3-amino-4-methoxy-pyrrolidin-1-yl]-3-pyridyl]ethyl]-4-methyl-3,4,6,7,9,9a-hexahydro-1H-pyrazino[1,2-a]pyrazin-2-yl]-3-fluoro-pyrazolo[1,5-a]pyridine-7-carbonitrile] | 84 nM | 65 nM
CO[C@@H]1CN(c2ccc(CCN3CCN4[C@@H](C3)CN(c3ccc(C#N)n5nccc35)C[C@H]4C)cc2)C[C@H]1N [Example 68, 4-[(4R,9aS)-8-[2-[4-[(3R,4R)-3-amino-4-methoxy-pyrrolidin-1-yl]phenyl]ethyl]-4-methyl-3,4,6,7,9,9a-hexahydro-1H-pyrazino[1,2-a]pyrazin-2-yl]pyrazolo[1,5-a]pyridine-7-carbonitrile] | 77 nM | 53 nM
C[C@@H]1CN(c2ccc(C#N)c3ncccc23)C[C@@H]2CN(Cc3cccc4c3CCNC4)CCN21 [Example 70, 5-[(4R,9aS)-4-methyl-8-(1,2,3,4-tetrahydroisoquinolin-5-ylmethyl)-3,4,6,7,9,9a-hexahydro-1H-pyrazino[1,2-a]pyrazin-2-yl]quinoline-8-carbonitrile] | 12 nM | 11 nM
C[C@@H]1CN(c2ccc(C#N)c3ncccc23)C[C@@H]2CN(Cc3cccc4c3CNC4)CCN21 [Example 72, 5-[(4R,9aS)-8-(isoindolin-4-ylmethyl)-4-methyl-3,4,6,7,9,9a-hexahydro-1H-pyrazino[1,2-a]pyrazin-2-yl]quinoline-8-carbonitrile] | 15 nM | 12 nM
Cc1cc(N2CCN3[C@@H](C2)CN(c2ccc(C#N)c4ncccc24)C[C@H]3C)cc(N2CC(C)(N)C2)n1 [Example 73, 5-[(4R,9aS)-8-[2-(3-amino-3-methyl-azetidin-1-yl)-6-methyl-4-pyridyl]-4-methyl-3,4,6,7,9,9a-hexahydro-1H-pyrazino[1,2-a]pyrazin-2-yl]quinoline-8-carbonitrile] | 18 nM | 25 nM
C[C@@H]1CN(c2ccc(C#N)n3ncc(F)c23)C[C@@H]2CN(CCc3ccc(N4CC(C)(N)C4)nc3)CCN21 [Example 74, 4-[(4R,9aS)-8-[2-[6-(3-amino-3-methyl-azetidin-1-yl)-3-pyridyl]ethyl]-4-methyl-3,4,6,7,9,9a-hexahydro-1H-pyrazino[1,2-a]pyrazin-2-yl]-3-fluoro-pyrazolo[1,5-a]pyridine-7-carbonitrile] | 62 nM | 28 nM
Cc1nc(N2CC(C)(N)C2)ccc1CN1CCN2[C@@H](C1)CN(c1ccc(C#N)c3ncccc13)C[C@H]2C [Example 76, 5-[(4R,9aS)-8-[[6-(3-amino-3-methyl-azetidin-1-yl)-2-methyl-3-pyridyl]methyl]-4-methyl-3,4,6,7,9,9a-hexahydro-1H-pyrazino[1,2-a]pyrazin-2-yl]quinoline-8-carbonitrile] | 5 nM | 16 nM

Results, then the molecule that gave them:

IC50 (human TLR8) | IC50 (human TLR7) | Structure (SMILES)
28 nM | 19 nM | C[C@@H]1CN(c2ccc(C#N)c3ncccc23)C[C@@H]2CN(CCc3ccc(N4CC(C)(N)C4)nc3)CCN21 [Example 65, 5-[(4R,9aS)-8-[2-[6-(3-amino-3-methyl-azetidin-1-yl)-3-pyridyl]ethyl]-4-methyl-3,4,6,7,9,9a-hexahydro-1H-pyrazino[1,2-a]pyrazin-2-yl]quinoline-8-carbonitrile]
39 nM | 62 nM | CO[C@@H]1CN(c2ccc(CCN3CCN4[C@@H](C3)CN(c3ccc(C#N)n5ncc(F)c35)C[C@H]4C)cc2)C[C@H]1N [Example 66, 4-[(4R,9aS)-8-[2-[4-[(3R,4R)-3-amino-4-methoxy-pyrrolidin-1-yl]phenyl]ethyl]-4-methyl-3,4,6,7,9,9a-hexahydro-1H-pyrazino[1,2-a]pyrazin-2-yl]-3-fluoro-pyrazolo[1,5-a]pyridine-7-carbonitrile]
52 nM | 66 nM | C[C@@H]1CN(c2ccc(C#N)n3ncc(F)c23)C[C@@H]2CN(Cc3ccc4c(c3)CNCC4)CCN21 [Example 69, 4-[(4R,9aS)-4-methyl-8-(1,2,3,4-tetrahydroisoquinolin-7-ylmethyl)-3,4,6,7,9,9a-hexahydro-1H-pyrazino[1,2-a]pyrazin-2-yl]-3-fluoro-pyrazolo[1,5-a]pyridine-7-carbonitrile]
21 nM | 45 nM | C[C@@H]1CN(c2ccc(C#N)c3ncccc23)C[C@@H]2CN(Cc3cccc4c3CNCC4)CCN21 [Example 71, 5-[(4R,9aS)-4-methyl-8-(1,2,3,4-tetrahydroisoquinolin-8-ylmethyl)-3,4,6,7,9,9a-hexahydro-1H-pyrazino[1,2-a]pyrazin-2-yl]quinoline-8-carbonitrile]
84 nM | 34 nM | C[C@@H]1CN(c2ccc(C#N)n3ncc(F)c23)C[C@@H]2CN(CCc3ccc(N4C[C@@H](N)[C@@H](F)C4)nc3)CCN21 [Example 75, 4-[(4R,9aS)-8-[2-[6-[(3R,4S)-3-amino-4-fluoro-pyrrolidin-1-yl]-3-pyridyl]ethyl]-4-methyl-3,4,6,7,9,9a-hexahydro-1H-pyrazino[1,2-a]pyrazin-2-yl]-3-fluoro-pyrazolo[1,5-a]pyridine-7-carbonitrile]
